Measurements from patent publication US8450308B2 (Vitae Pharmaceuticals, Inc., priority 2008, dated 2013).
Read-outs that look alike come from different tables or passages of the source.

Target: T1, truncated human beta-secretase (residues 1-458, His6-tagged at the C-terminus) (Homo sapiens, UniProt P56817)
T1 construct: truncated human beta-secretase (residues 1-458, His6-tagged at the C-terminus); His6 (C); made in house; host or cells: insect cells D. melanogaster S2 (baculovirus expression system (so in the source))
T1 sequence (P56817 22-458): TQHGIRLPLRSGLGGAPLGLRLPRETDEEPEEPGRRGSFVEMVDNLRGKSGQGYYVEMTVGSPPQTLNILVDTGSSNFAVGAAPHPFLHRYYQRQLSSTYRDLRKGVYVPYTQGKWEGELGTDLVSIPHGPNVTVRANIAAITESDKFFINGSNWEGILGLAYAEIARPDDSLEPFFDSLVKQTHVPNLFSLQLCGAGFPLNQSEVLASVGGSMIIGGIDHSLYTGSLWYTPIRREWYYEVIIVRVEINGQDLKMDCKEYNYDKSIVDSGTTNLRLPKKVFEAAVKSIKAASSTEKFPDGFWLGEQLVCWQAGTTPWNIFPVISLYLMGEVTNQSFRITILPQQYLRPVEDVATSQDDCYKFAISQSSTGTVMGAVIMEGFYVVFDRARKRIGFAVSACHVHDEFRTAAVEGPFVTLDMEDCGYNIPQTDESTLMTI
Assay: BACE fluorescence quench assay
Format: biochemical

[1] = in vitro enzyme activity, BACE fluorescence assay, pH 4.5, read-out: IC50

IC50 [1]	SMILES	IC50
500 to 1000 nM	CN1O[C@]2(C[C@@H](C[C@@H]3CCCO3)Oc3ccc(-c4cccc(C#N)c4)cc32)N=C1N (stereo in doubt) [Compound 367, 3-(3′-amino-2′-methyl-2-((tetrahydrofuran-2-yl)methyl)-2′H-spiro[chroman-4,5′-[1,2,4]oxadiazole]-6-yl)benzonitrile]	
1000 to 5000 nM	CN1C(=O)[C@@]2(CC(c3cccs3)Oc3ccc(-c4cccc(C#N)c4)cc32)N=C1N (stereo in doubt) [Compound 8b, 3-((2R,4S)-2′-Amino-1′-methyl-5′-oxo-2-(thiophen-2-yl)-1′,5′-dihydrospiro[chroman-4,4′-imidazole]-6-yl)-benzonitrile]	
100 to 500 nM	COc1cccc(-c2ccc3c(c2)C2(CC(C4CCCOC4)O3)N=C(N)N(C)O2)c1F (stereo not shown) [Compound 92]	
	CN1C(=O)C2(CC(c3ccccc3)Oc3ccc(-c4cccc(S(C)(=O)=O)c4)cc32)N=C1N (stereo not shown) [Compound 28, 2′-amino-1′-methyl-6-(3-(methylsulfonyl)phenyl)-2-phenylspiro[chroman-4,4′-imidazol]-5′(1′H)-one]	1000 to 5000 nM
1000 to 5000 nM	CN1OC2(CCOc3ccc(-c4cccc(C#N)c4)cc32)N=C1N (stereo not shown) [Compound 97, 3-(3′-Amino-2′-methyl-2′H-spiro[chroman-4,5′-[1,2,4]oxadiazole]-6-yl)benzonitrile]	
1000 to 5000 nM	CC(C)=CC(CCO)[C@H]1C[C@@]2(N=C(N)N(C)O2)c2cc(-c3cc(F)cc(F)c3F)ccc2O1 (stereo partly shown) [Compound 420]	
500 to 1000 nM	CN1OC2(CC3(CCOCC3)Oc3ccc(-c4cccc(C#N)c4)cc32)N=C1N (stereo not shown) [Compound 115]	
1000 to 5000 nM	CN1OC2(C[C@H](C3CCCOC3)Oc3ccc(-c4cccnc4F)cc32)N=C1N (stereo partly shown) [Compound 89b]	
100 to 500 nM	CN1OC2(CC(C3CCCOC3)Oc3ccc(-c4cc(F)cc(F)c4)cc32)N=C1N (stereo not shown) [Compound 90, 6-(3,5-difluorophenyl)-2′-methyl-2-(tetrahydro-2H-pyran-3-yl)-2′H-spiro[chroman-4,5′-[1,2,4]oxadiazol]-3′-amine]	
1000 to 5000 nM	CC(C)=CC(CCO)C1CC2(N=C(N)N(C)O2)c2cc(-c3cccc(C#N)c3)ccc2O1 (stereo not shown) [Compound 382]	
100 to 500 nM	CCN1C(=O)C2(CC(c3ccccc3)Oc3ccc(-c4cccc(C#N)c4)cc32)N=C1N (stereo not shown) [Compound 12, 3-(2′-amino-1′-ethyl-5′-oxo-2-phenyl-1′,5′-dihydrospiro[chroman-4,4′-imidazole]-6-yl)benzonitrile]	
10000 to 50000 nM	CN1C(=O)C2(CC(c3ccccc3F)Oc3ccc(Br)cc32)N=C1N (stereo not shown) [Compound 63, 2′-amino-6-bromo-2-(2-fluorophenyl)-1′-methylspiro-[chroman-4,4′-imidazol]-5′(1′H)-one]	
1000 to 5000 nM	CN1C(=O)C2(CC(C3CCOC(C)(C)C3)Oc3ccc(-c4cc(F)cc(Cl)c4)cc32)N=C1N (stereo not shown) [Compound 417]	
	CN1C(=O)C2(CC(c3ccccc3)Oc3ccc(Br)cc32)N=C1N (stereo not shown) [Compound 44, 2′-amino-6-bromo-1′-methyl-2-phenylspiro[chroman-4,4′-imidazol]-5′(1′H)-one]	10000 to 50000 nM
100 to 500 nM	CN1C(=O)C2(CC3(CCOCC3)Oc3ccc(-c4cccc(C#N)c4)cc32)N=C1N (stereo not shown) [Compound 77]	
100 to 500 nM	CN1OC2(CC(C3CCOC(C)(C)C3)Oc3ccc(-c4cccc(F)c4)cc32)N=C1N (stereo not shown) [Compound 343]	
1 to 100 nM	CN1OC2(CC(C3CCCOC3)Oc3ccc(-c4cc(F)cc(C#N)c4)cc32)N=C1N (stereo not shown) [Compound 86]	
1000 to 5000 nM	CN1O[C@]2(C[C@]3(CCCc4ccccc43)Oc3ccc(-c4cccc(C#N)c4)cc32)N=C1N [Compound 374]	
5000 to 10000 nM	CN1C(=O)[C@@]2(C[C@@]3(CCCOC3)Oc3ccc(-c4cc(CO)ccc4F)cc32)N=C1N [Compound 435]	
1000 to 5000 nM	CC1CCCC2(C1)CC1(N=C(N)N(C)C1=O)c1cc(-c3cccc(C#N)c3)ccc1O2 (stereo not shown) [Compound 82]	
1000 to 5000 nM	CCC1CCC2(C1)CC1(N=C(N)N(C)O1)c1cc(-c3cccc(C#N)c3)ccc1O2 (stereo not shown) [Compound 120]	
1000 to 5000 nM	CN1C(=O)[C@@]2(C[C@]3(CCCOC3)Oc3ccc(-c4ccco4)cc32)N=C1N [Compound 411]	
1 to 100 nM	CN1C(=O)C2(CC(C3CCCOC3)Oc3ccc(-c4cccc(C#N)c4)cc32)N=C1N (stereo not shown) [Compound 1, 3-(2′-amino-1′-methyl-5′-oxo-2-(tetrahydro-2H-pyran-3-yl)-1′,5′-dihydrospiro[chroman-4,4′-imidazole]-6-yl)benzonitrile]	

IC50 [1]	SMILES	IC50
500 to 1000 nM	CN1OC2(CC3(CCCCOC3)Oc3ccc(-c4cccc(C#N)c4)cc32)N=C1N (stereo not shown) [Compound 114]	
500 to 1000 nM	CN1O[C@]2(C[C@@H](C[C@H]3CCCO3)Oc3ccc(-c4cccc(C#N)c4)cc32)N=C1N (stereo in doubt) [Compound 360, 3-(3′-amino-2′-methyl-2-((tetrahydrofuran-2-yl)methyl)-2′H-spiro[chroman-4,5′-[1,2,4]oxadiazole]-6-yl)benzonitrile]	
100 to 500 nM	CN1C(=O)C2(CC(C3CCOC(C)(C)C3)Oc3ccc(-c4cc(C#N)ccc4C(F)(F)F)cc32)N=C1N (stereo not shown) [Compound 284]	
5000 to 10000 nM	CN1O[C@@]2(C[C@]3(CCC(C(C)(C)C)C3)Oc3ccc(-c4cccc(C#N)c4)cc32)N=C1N (stereo partly shown) [Compound 127b]	
500 to 1000 nM	CN1OC2(CC(C3CCOC(C)(C)C3)Oc3ccc(-c4ccc5cn[nH]c5c4)cc32)N=C1N (stereo not shown) [Compound 361]	
1000 to 5000 nM	CN1OC2(C[C@@]3(CCCC4CCCCC43)Oc3ccc(-c4cccc(C#N)c4)cc32)N=C1N (stereo partly shown) [Compound 416]	
5000 to 10000 nM	CN1OC2(CC3(CCS(=O)(=O)CC3)Oc3ccc(-c4cccc(C#N)c4)cc32)N=C1N (stereo not shown) [Compound 438]	
1000 to 5000 nM	CN1OC2(C[C@]3(CCCC4CCCCC43)Oc3ccc(-c4cccc(C#N)c4)cc32)N=C1N (stereo partly shown) [Compound 394]	
	CN1C(=O)C2(CC(c3ccccc3)Oc3ccc(-c4cncc(C#N)c4)cc32)N=C1N (stereo not shown) [Compound 5, 5-(2′-amino-1′-methyl-5′-oxo-2-phenyl-1′,5′-dihydrospiro[chroman-4,4′-imidazole]-6-yl)nicotinonitrile]	100 to 500 nM
100 to 500 nM	CN1OC2(CC3(CCCN(c4ncccn4)C3)Oc3ccc(-c4cccc(C#N)c4)cc32)N=C1N (stereo not shown) [Compound 329]	
1000 to 5000 nM	CC1CC(C)CC2(C1)CC1(N=C(N)N(C)C1=O)c1cc(-c3cccc(C#N)c3)ccc1O2 (stereo not shown) [Compound 83]	
	CN1C(=O)C2(CC(c3ccccc3)Oc3ccc(-c4cccc(OC(F)(F)F)c4)cc32)N=C1N (stereo not shown) [Compound 24, 2′-amino-1′-methyl-2-phenyl-6-(3-(trifluoromethoxy)phenyl)spiro[chroman-4,4′-imidazol]-5′(1′H)-one]	1000 to 5000 nM
1000 to 5000 nM	Cc1cccc(-c2ccc3c(c2)[C@]2(C[C@]4(CCCOC4)O3)N=C(N)N(C)C2=O)c1C [Compound 389]	
5000 to 10000 nM	CN1OC2(CC(c3ccccc3)Oc3ccc(-c4ccc(F)c(C#N)c4)cc32)N=C1N (stereo not shown) [Compound 103, 5-(3′-amino-2′-methyl-2-phenyl-2′H-spiro(chroman-4,5′-(1,2,4)oxadiazole)-6-yl)-2-fluorobenzonitrile]	
100 to 500 nM	CN1C(=O)[C@@]2(C[C@@]3(CCCOC3)Oc3ccc(-c4cccc(C(F)(F)F)c4)cc32)N=C1N [Compound 325]	
1000 to 5000 nM	CN1C(=O)C2(CC3(CCCCC3)Oc3ccc(-c4cccnc4)cc32)N=C1N (stereo not shown) [Compound 80]	
1000 to 5000 nM	CN1C(=O)[C@@]2(C[C@]3(CCCOC3)Oc3ccc(-c4cc(CO)ccc4F)cc32)N=C1N [Compound 376]	
1000 to 5000 nM	CCOC(=O)c1cccc(-c2ccc3c(c2)[C@]2(C[C@]4(CCCOC4)O3)N=C(N)N(C)C2=O)c1 [Compound 386]	
1000 to 5000 nM	CC(C)=C[C@H](CCO)[C@@H]1C[C@@]2(N=C(N)N(C)O2)c2cc(-c3cc(F)cc(F)c3)ccc2O1 [Compound 419]	
500 to 1000 nM	CN1O[C@@]2(C[C@@]3(CCOC3)Oc3ccc(-c4cccc(C#N)c4)cc32)N=C1N (relative stereo) [Compound 113a]	
100 to 500 nM	CN1C(=O)[C@@]2(C[C@@]3(CCCOC3)Oc3ccc(-c4cc(C#N)cc(C(F)(F)F)c4)cc32)N=C1N [Compound 304]	
100 to 500 nM	CN1C(=O)C2(CC3(CCCOC3)Oc3ccc(-c4cccc(C#N)c4F)cc32)N=C1N (stereo not shown) [Compound 291]	
	CN1C(=O)C2(CC(c3ccccc3)Oc3ccc(-c4ccc(CNS(C)(=O)=O)cc4)cc32)N=C1N (stereo not shown) [Compound 62, N-(4-(2′-amino-1′-methyl-5′-oxo-2-phenyl-1′,5′-dihydrospiro[chroman-4,4′-imidazole]-6-yl)benzyl)methanesulfonamide]	10000 to 50000 nM
